The values below come from patent publication US8088426B2, “Kokumi flavour compounds and use” (priority 2005, dated 2012).

Entries after “also recorded” stand apart in the source; their conditions may differ.

Holding throughout (format): in vivo
The subject of test [1] is trained sensory panel. Briefly: Sensory triangle test, kokumi taste in chicken broth. To be noted: for Sensory descriptors: pH 6.5, versus broth without additives. Here is the method: Unless otherwise indicated, all sensory tests are triangle tests and are performed according to the guidelines in “Amtliche Sammlung von Untersuchungsverfahren nach § 35 LMBG (Lebensmittel-und Bedarfsgegenständegesetz)”; L 00.90 7, Untersuchung von Lebensmitteln, Sensorische Prüfverfahren, Dreiecksprüfung (Übernahme der gleichnahmigen Deutschen Norm DIN ISO 4120, Ausgabe Januar 1995), as follows:
The sensory panel is trained to evaluate the taste of aqueous solutions (4 ml each) of the following standard taste compounds by using a triangle test as described in the literature (Wieser and Belitz, Z. Lebensm. Unters. Forsch., 1975, 159, 65-72): sucrose (40 mmol/L) for sweet taste; citric acid (5 mmol/L) for sour taste; NaCl (12 mmol/L) for salt taste; caffeine (2 mmol/L) for bitter taste; and monosodium glutamate (MSG) (6 mmol/L) for umami taste. For kokumi taste, a solution of GSH (glutathione, 10 mmol/L) in diluted chicken broth concentrate (Goumet Bouillon Huhn, Maggi, Singen, Germany; 3 g/100 g bottled water (Evian®)) is prepared and compared to the taste of chicken broth with no glutathione added.
All sensory analyses are performed in a sensory panel room at 22-25° C. over three different sessions by a trained panel of 8 to 10 individuals.
For recording the taste profiles, samples are prepared as indicated in the examples below. Taste profiles of samples are determined in a triangle test in three different sessions. Panellists refrain from eating or drinking for at least 1 hour prior to the session. At the start of the session and before each trial, the subject rinsed with water and expectorated. The participants receive a set of two blanks and one taste sample. Liquid samples are swirled around in the mouth briefly and expectorated. Solid samples are chewed for 20 seconds and then expectorated. […] Each sample with additive is compared to two reference samples without additives. Kokumi intensity is rated according to a scale from 0 to 5 (with 5 most intensive). The additive is added to a consumable and the sample is homogenised. The samples are presented to the sensory panel directly after homogenisation. The sensory panel in all tests included 8 trained individuals.
Chicken Broth is prepared by dilution of 3 g chicken broth concentrate (Gourmet Bouillon Huhn; Maggi, Singen, Germany) with 100 ml water (Evian). Additives are added as specified in table below.
For each sample, kokumi intensity is rated and panelists are asked to describe sensory characteristics.

The test system of test [2] is trained sensory panel. The test is described as follows: Sensory triangle test, kokumi compounds in tomato juice. To be noted: for Panelists preferring the sample: panel of 8; for Test results (taste description): versus reference without additives. As for the experimental part: Unless otherwise indicated, all sensory tests are triangle tests and are performed according to the guidelines in “[…] von […]-und Bedarfsgegenständegesetz)”; L 00.90 7, Untersuchung von Lebensmitteln, Sensorische […] Deutschen Norm DIN ISO 4120, Ausgabe Januar 1995), as follows: All sensory analyses are performed in a sensory panel room at 22-25° C. over three different sessions by a trained panel of 8 to 10 individuals. For recording the taste profiles, samples are prepared as indicated in the examples below. Taste profiles of samples are determined in a triangle test in three different sessions. Panellists refrain from eating or drinking for at least 1 hour prior to the session. At the start of the session and before each trial, the subject rinsed with water and expectorated. The participants receive a set of two blanks and one taste sample. Liquid samples are swirled around in the mouth briefly and expectorated. Solid samples are chewed for 20 seconds and then expectorated. […] Each sample with additive is compared to two reference samples without additives. Kokumi intensity is rated according to a scale from 0 to 5 (with 5 most intensive). The additive is added to a consumable and the sample is homogenised. The samples are presented to the sensory panel directly after homogenisation. The sensory panel in all tests included 8 trained individuals. Compounds as indicated in the table below are added to tomato juice (Albi, Germany) in the concentrations indicated below.

Test [3] concerns trained sensory panel. The test is described as follows: Sensory triangle test, kokumi compounds in ketchup. The note with it: 2500 ppm; for Panelists indicating more meaty, bouillon-like, intensified overall taste: panel of 8. As for the experimental part:
Unless otherwise indicated, all sensory tests are triangle tests and are performed according to the guidelines in “[…] von […]-und Bedarfsgegenständegesetz)”; L 00.90 7, Untersuchung von Lebensmitteln, Sensorische […] Deutschen Norm DIN ISO 4120, Ausgabe Januar 1995), as follows: All sensory analyses are performed in a sensory panel room at 22-25° C. over three different sessions by a trained panel of 8 to 10 individuals. For recording the taste profiles, samples are prepared as indicated in the examples below. Taste profiles of samples are determined in a triangle test in three different sessions. Panellists refrain from eating or drinking for at least 1 hour prior to the session. At the start of the session and before each trial, the subject rinsed with water and expectorated. The participants receive a set of two blanks and one taste sample. Liquid samples are swirled around in the mouth briefly and expectorated. Solid samples are chewed for 20 seconds and then expectorated. […] Each sample with additive is compared to two reference samples without additives. Kokumi intensity is rated according to a scale from 0 to 5 (with 5 most intensive). The additive is added to a consumable and the sample is homogenised. The samples are presented to the sensory panel directly after homogenisation. The sensory panel in all tests included 8 trained individuals. Compounds as indicated in the table below are added to ketchup (Kraft) in a concentration of 2500 ppm.

Setting [4] is: additive 10 mmol/L, pH 6.5, scale 0 to 5 (5 most intensive), broth without additives rated 2.

With `N[C@@H](CCC(=O)N[C@@H](CS)C(=O)NCC(=O)O)C(=O)O` [GSH, reduced form, Gamma-L-glutamyl-L-cysteinyl-glycine], in the test with trained sensory panel [1] (setting [4]), the “Kokumi intensity (0-5)” value amounted to 3.5.

Consider `N[C@@H](CCC(=O)O)C(=O)[O-].[Na+]` [MSG, mono sodium glutamate], for which, in the test with trained sensory panel [1] (setting [4]), the “Kokumi intensity (0-5)” value stood at 2. The Sensory descriptors entry in the test with trained sensory panel [1] (additive 10 mmol/L) is “higher umami (taste of MSG) intensity; also recorded: no effect on mouthfulness and complexity of the taste profile; also recorded: Increased umami taste”.

Take `[Cl-].[Na+]` [NaCl]: the “Kokumi intensity (0-5)” value in the test on trained sensory panel [1] (additive 30 mmol/L, pH 6.5, scale 0 to 5, broth without additives rated 2) is recorded as 2. The Sensory descriptors result in the test on trained sensory panel [1] (additive 30 mmol/L) was “more salty than the negative control; also recorded: no effect on mouthfulness and complexity of the taste profile; also recorded: increased salty taste”.

For the molecule `CCOC(=O)CC(SC[C@H](NC(=O)CC[C@H](N)C(=O)O)C(=O)O)C(=O)OCC` (stereo partly drawn) [S-(α,β-dicarboxyethyl diethylester) γ-L-glutamyl-L-cysteine], the “Kokumi intensity (0-5)” value with trained sensory panel [1] (setting [4]) is 4.5. For the same molecule, in the test with trained sensory panel [2] (1000 ppm), the “Panelists preferring the sample” value is reported as “all panelists” and the “Test results (taste description)” value is recorded as “even more pronounced kokumi sensation”. For the same molecule, the “Panelists indicating more meaty, bouillon-like, intensified overall taste” value with trained sensory panel [3] is recorded as 7 out of 8.

Take `CCOC(=O)CC(SC[C@H](NC(=O)CC[C@H](N)C(=O)O)C(=O)NCC(=O)O)C(=O)OCC` (stereo partly drawn) [S-(α,β-dicarboxyethyl diethylester) γ-L-glutamyl-L-cysteinyl-glycine]: the “Kokumi intensity (0-5)” value in the test with trained sensory panel [1] (setting [4]) is 3.5. Moreover, in the test with trained sensory panel [2] (1000 ppm), the “Panelists preferring the sample” value is 6 out of 8; the “Test results (taste description)” value was “more intensive and well-balanced kokumi taste”. Besides, the “Test results (taste description)” value in the test with trained sensory panel [2] (5000 ppm) is on record as “increased with ascending concentrations”. Further, in the test with trained sensory panel [3], the “Observed effect compared to S-(α,β-dicarboxyethyl diethylester) γ-L-glutamyl-L-cysteine” value is given as “lower” and the “Panelists indicating more meaty, bouillon-like, intensified overall taste” value was 7 out of 8.

With `COC(=O)CC(SC[C@H](NC(=O)CC[C@H](N)C(=O)O)C(=O)O)C(=O)OC` (stereo partly drawn) [S-(α,β-dicarboxyethyl dimethylester) γ-L-glutamyl-L-cysteine], the “Kokumi intensity (0-5)” value in the test with trained sensory panel [1] (setting [4]) came out at 4.5.

For `COC(=O)CC(SC[C@H](NC(=O)CC[C@H](N)C(=O)O)C(=O)NCC(=O)O)C(=O)OC` (stereo partly drawn) [S-(α,β-dicarboxyethyl dimethylester) γ-L-glutamyl-L-cysteinyl-glycine], in the test on trained sensory panel [1] (setting [4]), the “Kokumi intensity (0-5)” value came out at 3.5.

Consider `CCCOC(=O)CC(SC[C@H](NC(=O)CC[C@H](N)C(=O)O)C(=O)O)C(=O)OCCC` (stereo partly drawn) [S-(α,β-dicarboxyethyl dipropylester) γ-L-glutamyl-L-cysteine], for which, in the test with trained sensory panel [1] (additive 10 mmol/L), the Sensory descriptors entry was “bitter”.

On to `CCCOC(=O)CC(SC[C@H](NC(=O)CC[C@H](N)C(=O)O)C(=O)NCC(=O)O)C(=O)OCCC` (stereo partly drawn) [S-(α,β-dicarboxyethyl dipropylester) γ-L-glutamyl-L-cysteinyl-glycine], for which, in the test on trained sensory panel [1] (additive 10 mmol/L), the Sensory descriptors result is “bitter”.
